From patent US20260265233A1, “BENZOTHIOPHENE DERIVATIVES AS RXFP1 AGONISTS” (BRISTOL-MYERS SQUIBB COMPANY, priority 2021, published 2026)

What follows are compounds tested against T1, human RXFP1 (Homo sapiens, UniProt Q9HBX9) (assay: hRXFP1 HEK293 cAMP assay (HTRF)). Settings: HEK293 cells stably expressing human RXFP1; 30 min at rt; intracellular cAMP by HTRF.
T1 construct: expressed in transfected cells
T1 sequence (Q9HBX9 1-757): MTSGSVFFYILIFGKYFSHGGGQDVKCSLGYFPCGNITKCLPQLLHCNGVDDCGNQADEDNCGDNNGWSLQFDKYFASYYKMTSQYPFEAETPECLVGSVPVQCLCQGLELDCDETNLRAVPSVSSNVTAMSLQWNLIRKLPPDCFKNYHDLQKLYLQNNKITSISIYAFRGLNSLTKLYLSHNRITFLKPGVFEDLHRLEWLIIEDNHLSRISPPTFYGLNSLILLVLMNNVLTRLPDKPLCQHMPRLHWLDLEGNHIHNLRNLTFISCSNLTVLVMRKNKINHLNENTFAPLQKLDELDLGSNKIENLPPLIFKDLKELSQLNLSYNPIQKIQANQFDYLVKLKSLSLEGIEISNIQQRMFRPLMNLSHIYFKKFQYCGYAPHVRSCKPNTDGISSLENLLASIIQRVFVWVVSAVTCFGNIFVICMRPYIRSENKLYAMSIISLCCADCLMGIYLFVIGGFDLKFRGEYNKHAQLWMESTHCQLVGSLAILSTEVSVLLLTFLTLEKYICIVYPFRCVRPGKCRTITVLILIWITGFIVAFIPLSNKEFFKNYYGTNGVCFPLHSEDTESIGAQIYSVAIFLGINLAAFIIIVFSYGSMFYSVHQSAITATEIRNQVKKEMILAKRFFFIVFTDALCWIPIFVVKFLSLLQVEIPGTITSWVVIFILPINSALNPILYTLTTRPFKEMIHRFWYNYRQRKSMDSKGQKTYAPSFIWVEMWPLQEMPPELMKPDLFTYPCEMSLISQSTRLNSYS
Format: cell-based
Method in brief: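 HEK293 cells stably expressing human RXFP1 treated 30 min at rt with compound (0.010 nM to 50 μM, 2% DMSO) in HBSS/HEPES buffer with 0.5 mM IBMX. Intracellular cAMP measured by HTRF (665/590 nm ratio) against a cAMP standard curve; potency fitted by 4-parameter logistic.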

Compound | EC50 [nM]
COc1ccc(C(=O)N2CC[C@@H](O)C2)cc1C(=O)Nc1c(C(=O)Nc2ccc(F)c(C(F)(F)F)c2)sc2cc(Cl)ncc12 [Example 199, (R)-6-chloro-N-(4-fluoro-3-(trifluoromethyl)phenyl)-3-(5-(3-hydroxypyrrolidine-1-carbonyl)-2-methoxy-benzamido) thieno[3,2-c]pyridine-2-carboxamide] | 690
COc1ccc(C2=NOC3(C2)CN(C(=O)C(C)(C)O)C3)cc1C(=O)Nc1c(C(=O)Nc2ccc(F)c(C(F)(F)F)c2)sc2cc(C(F)(F)F)ccc12 [Example 284, N-(4-fluoro-3-(trifluoromethyl)phenyl)-3-(5-(2-(2-hydroxy-2-methylpropanoyl)-5-oxa-2,6-diazaspiro[3.4]oct-6-en-7-yl)-2-methoxy-benzamido)-6-(trifluoromethyl) benzo[b] thiophene-2-carboxamide] | 1300
N-(4-fluoro-3- (trifluoromethyl) phenyl)-3-(4- methoxy-3′- (morpholino- sulfonyl)-[1,1′- biphenyl]-3- carboxamido)- 6- (trifluoromethyl) benzo[b] thiophene-2- carboxamide [Example 122] | 41.8
COc1ccc(-c2cccc(S(=O)(=O)N(C)C)c2)cc1C(=O)Nc1c(C(=O)Nc2ccc(F)c(C(F)(F)F)c2)sc2cc(C(F)(F)F)ccc12 [Example 119, 3-(3′-(N,N-dimethyl-sulfamoyl)-4-methoxy-[1,1′-biphenyl]-3-carboxamido)-N-(4-fluoro-3-(trifluoromethyl)phenyl)-6-(trifluoromethyl) benzo[b] thiophene-2-carboxamide] | 282

Results, then the compound that gave them:

EC50 [nM] | Compound
44.1 | COc1ccc(C2=NC(C(=O)N3CC(C)(O)C3)CO2)cc1C(=O)Nc1c(C(=O)Nc2ccc(F)c(C(F)(F)F)c2)sc2cc(C(F)(F)F)ccc12 (stereo not drawn) [Example 280, N-[4-fluoro-3-(trifluoromethyl)phenyl]-3-{5-[4-(3-hydroxy-3-methylazetidine-1-carbonyl)-4,5-dihydro-1,3-oxazol-2-yl]-2-methoxy-benzamido}-6-(trifluoromethyl)-1-benzothiophene-2-carboxamide]
29.8 | COc1ccc(C2CC2C(=O)NC2CCOCC2)cc1C(=O)Nc1c(C(=O)Nc2ccc(F)c(C(F)(F)F)c2)sc2cc(C(F)(F)F)ccc12 (single isomer, unassigned) [Example 158, N-[4-fluoro-3-(trifluoromethyl)phenyl]-3-(2-methoxy-5-{2-[(oxan-4-yl)carbamoyl]cyclopropyl}benzamido)-6-(trifluoromethyl)-1-benzothiophene-2-carboxamide]
865 | COc1ccc(C2CC2C(=O)N2CC(S(C)(=O)=O)C2)cc1C(=O)Nc1c(C(=O)Nc2ccc(F)c(C(F)(F)F)c2)sc2cc(C(F)(F)F)ccc12 (single isomer, unassigned) [Example 164, N-[4-fluoro-3-(trifluoromethyl)phenyl]-3-{5-[2-(3-methane-sulfonylazetidine-1-carbonyl)cyclopropyl]-2-methoxy-benzamido}-6-(trifluoromethyl)-1-benzothiophene-2-carboxamide]
226 | COc1ccc(C2CCCN(C3COC3)C2)cc1C(=O)Nc1c(C(=O)Nc2ccc(F)c(C(F)(F)F)c2)sc2cc(C(F)(F)F)ccc12 (stereo not drawn) [Example 84, N-(4-fluoro-3-(trifluoromethyl)phenyl)-3-(2-methoxy-5-(1-(oxetan-3-yl)piperidin-3-yl)benzamido)-6-(trifluoromethyl) benzo[b] thiophene-2-carboxamide]
2060 | COc1ccc(C2CCCC(NC3COC3)C2)cc1C(=O)Nc1c(C(=O)Nc2ccc(F)c(C(F)(F)F)c2)sc2cc(C(F)(F)F)ccc12 (single isomer, unassigned) [Example 63, N-(4-fluoro-3-(trifluoromethyl)phenyl)-3-(2-methoxy-5-(3-(oxetan-3-ylamino)cyclohexyl)benzamido)-6-(trifluoromethyl) benzo[b] thiophene-2-carboxamide]
